Test results as given in ChEMBL document CHEMBL5233273, “An overview of hydroxypyranone and hydroxypyridinone as privileged scaffolds for novel drug discovery” (Eur J Med Chem, 2021).
Converted amounts (≈) assume the structure as drawn.

Key:
Candida albicans = assay: Antifungal activity against Candida albicans ATCC 90028; assay type: functional
Tyrosinase [1] = molecular target: T1, Tyrosinase (Agaricus bisporus, UniProt O42713); assay: Inhibition of mushroom tyrosinase
T1 sequence (O42713 whole entry): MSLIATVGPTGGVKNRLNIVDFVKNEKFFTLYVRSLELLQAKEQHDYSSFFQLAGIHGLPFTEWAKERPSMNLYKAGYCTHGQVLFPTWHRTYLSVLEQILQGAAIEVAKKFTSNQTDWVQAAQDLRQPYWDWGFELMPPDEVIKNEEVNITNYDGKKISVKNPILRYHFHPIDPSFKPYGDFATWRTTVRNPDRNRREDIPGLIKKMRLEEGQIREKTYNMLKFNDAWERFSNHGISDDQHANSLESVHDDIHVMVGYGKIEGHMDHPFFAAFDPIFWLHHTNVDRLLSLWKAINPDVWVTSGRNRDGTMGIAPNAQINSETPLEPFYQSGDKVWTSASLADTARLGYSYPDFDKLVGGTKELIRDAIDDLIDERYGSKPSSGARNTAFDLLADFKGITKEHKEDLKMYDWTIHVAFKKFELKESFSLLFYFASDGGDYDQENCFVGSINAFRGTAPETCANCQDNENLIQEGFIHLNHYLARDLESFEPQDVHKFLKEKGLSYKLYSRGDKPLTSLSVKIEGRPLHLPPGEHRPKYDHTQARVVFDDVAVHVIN

DNA gyrase = DNA gyrase (Escherichia coli, UniProt P0AES4+P0AES6); assay: Inhibition of Escherichia coli DNA gyrase; assay type: protein-complex assay
[2] = test system: Mycolicibacterium smegmatis; assay: Antimycobacterial activity against Mycobacterium smegmatis; assay type: functional
Staphylococcus aureus [3] = assay: Antibacterial activity against Staphylococcus aureus; assay type: functional
Staphylococcus aureus [4] = assay: Antibacterial activity against Staphylococcus aureus assessed as zone of inhibition; assay type: functional
Histamine H3 receptor = Histamine H3 receptor (Homo sapiens, UniProt Q9Y5N1); assay: Binding affinity to human H3R expressed in HEK293 cells membrane; assay type: cell membranes
Histamine H3 receptor, sequence (Q9Y5N1 whole entry): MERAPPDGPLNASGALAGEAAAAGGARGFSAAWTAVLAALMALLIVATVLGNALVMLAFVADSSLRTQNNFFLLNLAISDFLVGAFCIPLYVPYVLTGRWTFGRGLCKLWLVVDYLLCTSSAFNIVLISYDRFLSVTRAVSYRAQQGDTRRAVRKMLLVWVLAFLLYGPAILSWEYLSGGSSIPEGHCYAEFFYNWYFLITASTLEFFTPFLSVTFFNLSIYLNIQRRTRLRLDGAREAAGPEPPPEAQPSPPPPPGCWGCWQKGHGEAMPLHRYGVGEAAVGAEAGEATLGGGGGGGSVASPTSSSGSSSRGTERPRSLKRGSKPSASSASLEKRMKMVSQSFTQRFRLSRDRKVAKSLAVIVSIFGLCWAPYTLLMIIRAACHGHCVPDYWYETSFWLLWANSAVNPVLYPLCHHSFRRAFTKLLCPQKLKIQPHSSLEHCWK

Tyrosinase [5] = molecular target: T1, Tyrosinase; assay: Inhibition of mushroom tyrosinase diphenolase activity
Tyrosinase [6] = molecular target: T1, Tyrosinase; assay: (§1) Inhibition of mushroom tyrosinase monophenolase activity
[7] = Inhibition of TBHP induced lipid peroxidation in human HaCaT cells; assay type: functional
[8] = Inhibition of HIV-1 integrase; design: species or system Human immunodeficiency virus 1
Hepatitis C virus = assay: Antiviral activity against HCV; assay type: functional, organism-based, Hepacivirus hominis
HepG2 = assay: Cytotoxicity against human HepG2 cells; assay type: functional, cell-based
HeLa = assay: Cytotoxicity against human HeLa cells; assay type: functional, cell-based
A549 = assay: Cytotoxicity against human A549 cells; assay type: functional, cell-based
DU-145 = assay: Cytotoxicity against human DU-145 cells; assay type: functional, cell-based
[9] = molecular target: T2, Tyrosinase (Agaricus bisporus) (UniProt O42713); assay: Potency index, ratio of kojic acid IC50 to test compound IC50 for inhibition of mushroom tyrosinase
T2 sequence (whole entry): T1 sequence (O42713 whole entry)

[10] = Antioxidant activity assessed as DPPH radical scavenging activity; assay type: functional
RAW264.7 = assay: Antiinflammatory activity in mouse RAW264.7 assessed as reduction in LPS-induced PGE2 production; assay type: functional, cell-based
[11] = molecular target: T2, Tyrosinase (Agaricus bisporus); assay: as §1

`COc1ccccc1N1CCN(Cc2oc(C)cc(=O)c2O)CC1` gave an MIC (Candida albicans) of 64 µg/mL (≈ 194 µM).

With `COc1cc(OCc2cn(Cc3cc(=O)c(O)co3)nn2)cc(OC)c1OC` the IC50 (Tyrosinase [1]) was 60 nM.

Molecule `Cc1cc(=O)c(O)c(CN2CCN(c3cccc(C(F)(F)F)c3)CC2)o1` has an MIC (Candida albicans) of 64 µg/mL (≈ 174 µM).

In the case of `Cc1[nH]c(C(=O)N[C@H]2CCc3nc(NC(=O)[C@@H](NC(=O)c4cc(=O)c(O)c[nH]4)C(C)C)sc3C2)c(Cl)c1Cl`, the IC50 (DNA gyrase) is reported as 640 nM.

With `COc1cc(OC)cc(OCc2cn(Cc3cc(=O)c(O)co3)nn2)c1` the IC50 (Tyrosinase [1]) was 60 nM.

With `O=c1cc(Cn2cc(COc3ccc(Cl)cc3)nn2)occ1O` the IC50 (Tyrosinase [1]) was 60 nM.

Molecule `CCC1CCC(C)N(Cc2oc(C)cc(=O)c2O)C1` (centres undefined) has an MIC [2] of 8 µg/mL (≈ 30.1 µM).

`O=C(OCc1cc(=O)c(O)co1)c1ccc2c(c1)OCCO2` gave an IC50 (Tyrosinase [1]) of 1520 nM.

For `Cc1[nH]c(C(=O)N[C@H]2CCc3nc(NC(=O)[C@H](C)NC(=O)c4cc(=O)c(O)c[nH]4)sc3C2)c(Cl)c1Cl`, the IC50 (DNA gyrase) was 260 nM.

With `Cc1cc(=O)c(O)c(CN2C(C)CCCC2C)o1` (centres undefined) the MIC [2] was 8 µg/mL (≈ 31.8 µM).

Work on `Cc1cc(=O)c(O)c(CN2CCC(O)CC2)o1` yielded an MIC [2] of 8 µg/mL (≈ 33.4 µM).

In the case of `Cc1cc(=O)c(O)c(CN2CCC(c3ccc(O)cc3)CC2)o1`, the MIC [2] is reported as 8 µg/mL (≈ 25.4 µM).

In the case of `Cn1cc(O)c(=O)cc1C(=O)Nc1cccnc1`, the MIC (Staphylococcus aureus [3]) is reported as 32 µg/mL (≈ 130 µM).

Molecule `Cc1cc(=O)c(O)c(CN2CCC(N3CCOCC3)CC2)o1` has an MIC [2] of 8 µg/mL (≈ 25.9 µM).

With `O=C(/C=C/c1ccc(C(=O)OCc2cc(=O)c(O)co2)cc1)c1ccc(Br)cc1` the “inhibition zone (IZ)” value (Staphylococcus aureus [4]) was 8 mm.

`Cc1[nH]c(C(=O)N[C@H]2CCc3nc(NCc4cc(=O)c(O)co4)sc3C2)c(Cl)c1Cl` showed an IC50 (DNA gyrase) of 2100 nM.

In the case of `O=c1cc(Cn2cc(COc3ccc(Cl)cc3Cl)nn2)occ1O`, the IC50 (Tyrosinase [1]) is reported as 60 nM.

`Cc1cc(=O)c(O)c(CN2CCN(c3ccc(Cl)cc3)CC2)o1` showed an MIC (Candida albicans) of 64 µg/mL (≈ 191 µM).

With `O=c1cc(CN(Cc2ccc(OCCCN3CCCCC3)cc2)Cc2cc(=O)c(O)co2)occ1O` the Ki (Histamine H3 receptor) was 10 nM.

With `CCOC(=O)C1CCN(Cc2oc(C)cc(=O)c2O)CC1` the MIC [2] was 8 µg/mL (≈ 27.1 µM).

Work on `Cc1cc(=O)c(O)c(CN2CCC(c3ccccn3)CC2)o1` yielded an MIC [2] of 8 µg/mL (≈ 26.6 µM).

With `Cc1cc(=O)c(O)c(CN2CCN(c3ccccn3)CC2)o1` the MIC (Candida albicans) was 64 µg/mL (≈ 212 µM).

With `O=c1cc(CSc2ccc(O)cc2)occ1O` the IC50 (Tyrosinase [1]) was 540 nM.

Molecule `CCCCCCCCn1cc(O)c(=O)cc1/C=N/OCC` has an IC50 (Tyrosinase [5]) of 7990 nM and an IC50 (Tyrosinase [6]) of 1600 nM.

`Cc1cc(=O)c(O)c(CN2CCC(Cc3ccccc3)CC2)o1` showed an MIC [2] of 8 µg/mL (≈ 25.5 µM).

Molecule `Cc1cc(=O)c(O)c(CN2CCN(Cc3ccccc3)CC2)o1` has an MIC (Candida albicans) of 64 µg/mL (≈ 204 µM).

For `O=C(/C=C/c1ccc2c(c1)OCCO2)OCc1cc(=O)c(O)co1`, the IC50 (Tyrosinase [1]) was 1520 nM.

For `O=C(/C=C/c1ccc2c(c1)OCO2)OCc1cc(=O)c(O)co1`, the “inhibition (INH)” value [7] was 47% and the IC50 (Tyrosinase [1]) was 1400 nM.

Molecule `COc1cccc(N2CCN(Cc3oc(C)cc(=O)c3O)CC2)c1` has an MIC (Candida albicans) of 64 µg/mL (≈ 194 µM).

`O=c1cc(CNCc2ccc(OCCCN3CCCCC3)cc2)occ1O` gave a Ki (Histamine H3 receptor) of 31.6 nM.

With `Cc1cc(=O)c(O)c(C(=O)NCc2ccc(F)cc2)o1` the EC50 [8] was 700 nM and the IC50 [8] was 370 nM.

Work on `CC(=O)c1ccc(N2CCN(Cc3oc(C)cc(=O)c3O)CC2)cc1` yielded an MIC (Candida albicans) of 64 µg/mL (≈ 187 µM).

Work on `CCCCCCCCn1cc(O)c(=O)cc1COC(=O)[C@@H](N)Cc1ccccc1` yielded an IC50 (Tyrosinase [5]) of 4000 nM and an IC50 (Tyrosinase [6]) of 12600 nM.

Molecule `COc1ccc(C(=O)OCc2cc(=O)c(O)co2)cc1` has an EC50 (Hepatitis C virus) of 2550 nM and an IC50 (Tyrosinase [1]) of 20000 nM.

With `O=c1cc(CN2CCCC2)oc(CN2CCN(Cc3ccc(Br)c(F)c3)CC2)c1O` the IC50 (HepG2) was 32700 nM.

Work on `CC(C)(C)[Si](C)(C)OCc1cc(=O)c(O)c(C(C[N+](=O)[O-])c2cccc(Cl)c2)o1` (centres undefined) yielded an IC50 (HeLa) of 10000 nM, an IC50 (A549) of 9000 nM and an IC50 (DU-145) of 14000 nM.

Work on `Cc1cc(=O)c(O)c(CN2CCN(c3ccccc3)CC2)o1` yielded an MIC (Candida albicans) of 64 µg/mL (≈ 213 µM).

Molecule `CC(C)(C)[Si](C)(C)OCc1cc(=O)c(O)c(C(C[N+](=O)[O-])c2ccc(Br)cc2)o1` (centres undefined) has an IC50 (A549) of 8000 nM and an IC50 (DU-145) of 13000 nM.

Molecule `O=c1cc(Cn2cc(COc3ccc4ccccc4c3)nn2)occ1O` has an IC50 (Tyrosinase [1]) of 60 nM and a Ratio IC50 [9] of 155.

`CCOC(=O)CC(c1ccccc1)c1oc(CO)cc(=O)c1O` (centres undefined) gave an Activity [10] of 58.2%.

In the case of `O=c1cc(/C=C/c2ccc(O)cc2)occ1O`, the IC50 (RAW264.7) is reported as 3200 nM.

`Cc1cc(=O)c(O)c(CN2CCC(CO)CC2)o1` gave an MIC [2] of 8 µg/mL (≈ 31.6 µM).

For `Cc1cc(=O)c(O)c(CN2CCCC(C)C2)o1` (centres undefined), the MIC [2] was 8 µg/mL (≈ 33.7 µM).

Molecule `CCCCCCn1cc(O)c(=O)cc1/C=N/OCC` has an IC50 (Tyrosinase [5]) of 13900 nM and an IC5 [11] of 2.04 µM.
